# In ChEMBL document CHEMBL2146384 (J Med Chem, 2012):
# Key:
# [1] = molecular target: T1, Deoxyuridine 5'-triphosphate nucleotidohydrolase, mitochondrial (Homo sapiens, UniProt P33316); test: Inhibition of human dUTPase-mediated formation of [5-3H]dUMP expressed in Escherichia coli BL21 (DE3) after 15 mins by HPLC analysis
# T1 sequence (P33316 whole entry): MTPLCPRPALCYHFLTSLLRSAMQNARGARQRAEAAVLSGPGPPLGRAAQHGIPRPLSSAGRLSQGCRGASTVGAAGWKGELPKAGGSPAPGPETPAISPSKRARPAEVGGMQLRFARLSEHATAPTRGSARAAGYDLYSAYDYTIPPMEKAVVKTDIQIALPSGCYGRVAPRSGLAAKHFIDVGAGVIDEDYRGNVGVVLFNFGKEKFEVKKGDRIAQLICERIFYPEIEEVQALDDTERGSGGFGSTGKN
# Mus musculus [2] = test: Toxicity in Balb/cA JcL mouse xenografted with human MX1 cells assessed as mortality at 300 mg/kg/day, po co-administered with 5-FU at 15 mg/kg/day as continuous infusion measured on day 15; type: organism-based; conditions: in vivo
# [3] = AUC (0 to t) in Balb/cA mouse at 50 mg/kg, po; type: ADME, organism-based; set-up: dose 50 mg/kg, route oral; conditions: plasma
# [4] = Cmax in Balb/cA mouse at 50 mg/kg, po; type: ADME, organism-based; set-up: dose 50 mg/kg, route oral; conditions: in vivo
# [5] = Half life in Balb/cA mouse at 50 mg/kg, po; type: ADME, organism-based; set-up: dose 50 mg/kg, route oral; conditions: in vivo
# [6] = Tmax in Balb/cA mouse at 50 mg/kg, po; type: ADME, organism-based; set-up: dose 50 mg/kg, route oral; conditions: in vivo
# MX1 [7] = test: Potentiation of 5-FU induced antitumor activity in human MX1 cells xenografted in Balb/cA JcL mouse at 300 mg/kg/day, po measured on day 15; type: functional; conditions: MX1, 360 h
# MX1 [8] = test: Antitumor activity against human MX1 cells xenografted in Balb/cA JcL mouse at 300 mg/kg/day, po measured on day 15; type: functional; conditions: MX1, 360 h
# Mus musculus [9] = test: Toxicity in Balb/cA JcL mouse xenografted with human MX1 cells assessed as reduction of body weight at 300 mg/kg/day, po co-administered with 5-FU at 15 mg/kg/day as continuous infusion measured on day 15; type: organism-based; conditions: in vivo
# MX1 [10] = test: Antitumor activity against human MX1 cells xenografted in Balb/cA JcL mouse at 15 mg/kg/day dosed as as continuous infusion measured on day 15; type: functional; conditions: MX1, 360 h
Compound,IC50 [1],also measured
CC(C)(NS(=O)(=O)c1ccccc1)c1ccc(Cn2ccc(=O)[nH]c2=O)cc1,1800 nM,–
CC(C)(CC/C=C/Cn1ccc(=O)[nH]c1=O)NS(=O)(=O)c1ccccc1,1600 nM,–
COc1cccc(S(=O)(=O)NC(C)(C)c2ccc(Cn3ccc(=O)[nH]c3=O)cc2)c1,1270 nM,–
CC(C)(NS(=O)(=O)c1cccc(OCC2CC2)c1)c1ccc(Cn2ccc(=O)[nH]c2=O)cc1,73 nM,–
CC(C)(NS(=O)(=O)c1cccc(OC2CCCC2)c1)c1ccc(Cn2ccc(=O)[nH]c2=O)cc1,31 nM,–
CC(C)(NS(=O)(=O)c1cccc(OCC(F)F)c1)c1ccc(Cn2ccc(=O)[nH]c2=O)cc1,73 nM,–
COc1cccc(S(=O)(=O)NC(C)(C)CC/C=C/Cn2ccc(=O)[nH]c2=O)c1,340 nM,–
CC(C)(CC/C=C/Cn1ccc(=O)[nH]c1=O)NS(=O)(=O)c1cccc(OC2CCCC2)c1,33 nM,–
CC(C)(CC/C=C/Cn1ccc(=O)[nH]c1=O)NS(=O)(=O)c1cccc(OCC(F)F)c1,26 nM,–
C[C@@H](NS(=O)(=O)c1ccc(Cn2ccc(=O)[nH]c2=O)cc1)c1cccc(OCC2CC2)c1,820 nM,–
C[C@@H](NS(=O)(=O)c1ccc(Cn2ccc(=O)[nH]c2=O)cc1)c1cccc(OC2CCCC2)c1,430 nM,–
C[C@@H](NS(=O)(=O)c1ccc(Cn2ccc(=O)[nH]c2=O)cc1)c1cccc(OCC(F)F)c1,410 nM,–
C[C@@H](NS(=O)(=O)CC/C=C/Cn1ccc(=O)[nH]c1=O)c1cccc(OCC2CC2)c1,39 nM,Activity (Mus musculus [2]): Non-toxic; AUC(0-t) [3]: 19.5 µM·h; Cmax [4]: 19.5 µM; half-life [5]: 53.4 min; Tmax [6]: 30 min; inhibition in vivo at 300 mg/kg/day (MX1 [7]): 68%; inhibition in vivo at 300 mg/kg/day (MX1 [8]): -29%; Activity (Mus musculus [9]): Non-toxic
C[C@@H](NS(=O)(=O)CC/C=C/Cn1ccc(=O)[nH]c1=O)c1cccc(OC2CCCC2)c1,41 nM,–
C[C@@H](NS(=O)(=O)CC/C=C/Cn1ccc(=O)[nH]c1=O)c1cccc(OCC(F)F)c1,82 nM,–
O=c1[nH]cc(F)c(=O)[nH]1 [FLUOROURACIL],–,inhibition in vivo at 15 mg/kg/day (MX1 [10]): 20%
